The values below come from patent US10076519B2 (CYTOKINETICS, INC., priority 2010, dated 2018).

In the first experiment the test system is rabbit skeletal myofibrils (fast skeletal myofibrils). The experiment can be described thus: Activation of fast skeletal myofibrils (PUMA assay, PK/LDH-coupled ATPase at pCa25). It counts as biochemical. The conditions noted are these: AC1.4 determined according to the procedure of Example 39; reported as class symbols. Put shortly: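 ATPase activity of Triton-washed rabbit skeletal myofibrils, roughly 90% fast fibres, tracked by NADH loss at 340 nm through a PK/LDH-coupled ADP-regenerating system. Calcium set to 25% of maximal activity (pCa25), in PIPES 12 mM pH 6.8 with 2 mM MgCl2 and 1 mM DTT; AC1.4 reported.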
On to `Nc1cccc(-c2ccc(NCC3(c4ncccc4F)CCC3)nn2)c1` [[6-(3-aminophenyl)pyridazin-3-yl]{[(3-fluoro(2-pyridyl))cyclobutyl]methyl}amine], for which the “Mean AC1.4” value is reported as “A (A=<1 uM)”.

Regarding `CC(C)(CNc1ccc(C(=O)N2CCNC(=O)C2)nn1)c1ccc(F)cc1` [4-[(6-{[2-(4-fluorophenyl)-2-methylpropyl]amino}pyridazin-3-yl)carbonyl]piperazin-2-one], the “Mean AC1.4” value was “D (D=>20 uM)”.

As to `N=C(N)Nc1ccc(-c2ccc(NCC3(c4ncccc4F)CCC3)nn2)cc1`, the “Mean AC1.4” value is recorded as “B (B=1-10 uM)”.

Regarding `CC(C)(CNc1ccc(-c2cncc(C(N)=O)c2)nn1)c1ccccc1Cl` [5-(6-{[2-(2-chlorophenyl)-2-methylpropyl]amino}pyridazin-3-yl)pyridine-3-carboxamide], the “Mean AC1.4” value is “B (B=1-10 uM)”.

`CC(C)(CNc1ccc(-c2cn[nH]c2)nn1)c1ccc(F)cc1` [[2-(4-fluorophenyl)-2-methylpropyl](6-pyrazol-4-ylpyridazin-3-yl)amine]: the “Mean AC1.4” value is recorded as “B (B=1-10 uM)”.

In the case of `CC(C)(CNc1ccc(C(=O)N2CCNCC2)nn1)c1ccc(F)cc1` [6-{[2-(4-fluorophenyl)-2-methylpropyl]amino}pyridazin-3-yl piperazinyl ketone], the “Mean AC1.4” value is “D (D=>20 uM)”.

For the molecule `Cc1cc(-c2cccc(C(N)=O)c2)nnc1NCC(C)(C)c1ccc(F)cc1` [3-(6-{[2-(4-fluorophenyl)-2-methylpropyl]amino}-5-methylpyridazin-3-yl)benzamide], the “Mean AC1.4” value is reported as “B (B=1-10 uM)”.

For the molecule `Cn1cc(-c2ccc(NCC3(c4ncccc4F)CCC3)nn2)cn1` [{[(3-fluoro(2-pyridyl))cyclobutyl]methyl}[6-(1-methylpyrazol-4-yl)pyridazin-3-yl]amine], the “Mean AC1.4” value was “D (D=>20 uM)”.

As for `CC(C)(CNc1ccc(C(=O)N2CCCC(C(N)=O)C2)nn1)c1ccc(F)cc1` (centres unmarked) [1-[(6-{[2-(4-fluorophenyl)-2-methylpropyl]amino}pyridazin-3-yl)carbonyl]piperidine-3-carboxamide], the “Mean AC1.4” value is reported as “D (D=>20 uM)”.

Consider `CC(C)(CNc1ccc(-c2nnn[nH]2)nn1)c1ccc(F)cc1` [(6-(1H-1,2,3,4-tetraazol-5-yl)pyridazin-3-yl)[2-(4-fluorophenyl)-2-methylpropyl]amine], for which the “Mean AC1.4” value is reported as “D (D=>20 uM)”.

On to `CCc1ccc(NCC(C)(C)c2ccc(F)cc2)nn1` [(6-ethylpyridazin-3-yl)[2-(4-fluorophenyl)-2-methylpropyl]amine], for which the “Mean AC1.4” value is “C (C=10-20 uM)”.

For `CC(C)(CNc1ccc(-c2ccc3[nH]nc(N)c3c2)nn1)c1cccc(CO)c1`, the “Mean AC1.4” value is reported as “B (B=1-10 uM)”.

With `OCC1(CNc2ccc(-c3ccc4[nH]ncc4c3)nn2)CCC1` [({[(6-(1H-indazol-5-yl)pyridazin-3-yl)amino]methyl}cyclobut-yl)methan-1-ol], the “Mean AC1.4” value is recorded as “D (D=>20 uM)”.

On to `Fc1ccc(C2(CNc3ccc(-c4ccc5[nH]ncc5c4)nn3)CCC2)cc1` [(6-(1H-indazol-5-yl)pyridazin-3-yl){[(4-fluorophenyl)cyclo-butyl]methyl}amine], for which the “Mean AC1.4” value is reported as “A (A=<1 uM)”.

Staying with this experiment, now noted: median AC1.4 class, procedure of Example 39.
Consider `O=C(NC[C@H](O)CO)c1cnc(-c2ccc(NCC3(c4ncccc4F)CCC3)nn2)s1` [N-((2S)-2,3-dihydroxypropyl){2-[6-({[(3-fluoro(2-pyridyl))cyclobutyl]methyl}ami-no)pyridazin-3-yl](1,3-thiazol-5-yl)}carboxamide], for which the “Mean AC1.4” value is “A (A=<1 uM)”.

`NC(=O)c1cccc(-c2ccc(NC(=O)c3ccccc3)nn2)c1` [3-[6-(phenylcarbonylamino)pyridazin-3-yl]benzamide]: the “Mean AC1.4” value is recorded as “D (D=>20 uM)”.

Consider `O=C1CC[C@@H](C(=O)NCc2cnc(-c3ccc(NCC4(c5ncccc5F)CCC4)nn3)s2)N1` [((2S)-5-oxopyrrolidin-2-yl)-N-({2-[6-({[(3-fluoro(2-pyridyl))cyclobutyl]methyl}ami-no)pyridazin-3-yl](1,3-thiazol-5-yl)}methyl)carboxamide], for which the “Mean AC1.4” value was “A (A=<1 uM)”.

`NC(=O)c1csc(-c2ccc(NCC3(c4ncccc4F)CCC3)nn2)n1`: the “Mean AC1.4” value is on record as “D (D=>20 uM)”.

As for “ethyl 2-[6-({[(3-fluoro-2- pyridyl)cyclobutyl]methyl}ami- no)pyridazin-3-yl]-1,3-thiazole-4- carboxylate”, the “Mean AC1.4” value was “D (D=>20 uM)”.

`COc1nc(-c2ccc(NCC3(c4ncccc4F)CCC3)nn2)sc1C(=O)O` [2-[6-({[(3-fluoro(2-pyridyl))cyclobutyl]methyl}ami-no)pyridazin-3-yl]-4-methoxy-1,3-thiazole-5-carboxylic acid]: the “Mean AC1.4” value is reported as “C (C=10-20 uM)”.

In the case of `N#Cc1ccnc(C2(Nc3ccc(-c4cc(C(N)=O)ccc4F)nn3)CCC2)c1`, the “Mean AC1.4” value is “D (D=>20 uM)”.

With `CS(=O)(=O)N1Cc2nc(-c3ccc(NCC4(c5ncccc5F)CCC4)nn3)sc2C1` [2-[6-({[(3-fluoro(2-pyridyl))cyclobutyl]methyl}ami-no)pyridazin-3-yl]-5-(methylsulfonyl)-3-pyrrolino[3,4-d]1,3-thiazole], the “Mean AC1.4” value was “D (D=>20 uM)”.

On to `Fc1cccnc1C1(CNc2ccc(C3=CCCCC3)nn2)CCC1` [(6-cyclohex-1-enylpyridazin-3-yl){[(3-fluoro(2-pyridyl))cyclobutyl]methyl}amine], for which the “Mean AC1.4” value is recorded as “A (A=<1 uM)”.

The same experiment, now with this note: median AC1.4 reported as class; procedure of Example 39.
Turning to `O=C1CC[C@H](NC(=O)c2ccc(NCC3(c4ncccc4F)CCC3)nn2)CN1` [N-((3S)-6-oxo(3-piperidyl))[6-({[(3-fluoro(2-pyridyl))cyclobutyl]methyl}ami-no)pyridazin-3-yl]carboxamide], the “Mean AC1.4” value was “D (D=>20 uM)”.

Regarding `O=S1(=O)CCN(Cc2cnc(-c3ccc(NCC4(c5ncccc5F)CCC4)nn3)s2)CC1` [4-({2-[6-({[(3-fluoro-2-pyridyl)cyclobutyl]methyl}ami-no)pyridazin-3-yl]-1,3-thiazol-5-yl}methyl)-1,4-thiazaperhydroine-1,1-dione], the “Mean AC1.4” value was “D (D=>20 uM)”.

For `O=C(Nc1nnc[nH]1)c1ccc(NCC2(c3ncccc3F)CCC2)nn1` [N-(1H-1,2,4-triazol-5-yl)[6-({[(3-fluoro(2-pyridyl))cyclobutyl]methyl}ami-no)pyridazin-3-yl]carboxamide], the “Mean AC1.4” value is recorded as “D (D=>20 uM)”.

With `O=C(NCc1ccn[nH]1)c1ccc(NCC2(c3ncccc3F)CCC2)nn1` [[6-({[(3-fluoro(2-pyridyl))cyclobutyl]methyl}ami-no)pyridazin-3-yl]-N-(pyrazol-5-ylmethyl)carboxamide], the “Mean AC1.4” value is recorded as “D (D=>20 uM)”.

On to `CN1CC(NC(=O)c2cccc(-c3ccc(NC[C@]4(c5ncccc5F)C[C@H](F)C4)nn3)c2)C1` [{3-[6-({[3-fluoro-1-(3-fluoro(2-pyridyl))cyclobutyl]methyl}ami-no)pyridazin-3-yl]phenyl}-N-(1-methylazetidin-3-yl)carboxamide], for which the “Mean AC1.4” value is listed as “B (B=1-10 uM)”.

For the molecule `CCNC(=O)c1cc(-c2ccc(NC[C@]3(c4ncccc4F)C[C@H](F)C3)nn2)ccc1F` [N-ethyl{2-fluoro-5-[6-({[3-fluoro-1-(3-fluoro(2-pyridyl))cyclobutyl]methyl}ami-no)pyridazin-3-yl]phenyl}carboxamide], the “Mean AC1.4” value is “C (C=10-20 uM)”.

As for `CN(C)C(=O)c1ccc(NCC2(c3ncccc3F)CCC2)nn1` [[6-({[(3-fluoro(2-pyridyl))cyclobutyl]methyl}ami-no)pyridazin-3-yl]-N,N-dimethylcarboxamide], the “Mean AC1.4” value is “D (D=>20 uM)”.

On to “[6-({[(3-fluoro(2- pyridyl))cyclobutyl]methyl}ami- no)pyridazin-3-yl]-N-[(5- oxopyrrolidin-3- yl)methyl]carboxamide”, for which the “Mean AC1.4” value is recorded as “D (D=>20 uM)”.

As for `CNC(=O)c1cc(C)cc(-c2ccc(NC[C@]3(c4ncccc4F)C[C@H](F)C3)nn2)c1O` [{3-[6-({[3-fluoro-1-(3-fluoro(2-pyridyl))cyclobutyl]methyl}ami-no)pyridazin-3-yl]-2-hydroxy-5-methylphenyl}-N-methylcarboxamide], the “Mean AC1.4” value is reported as “B (B=1-10 uM)”.

Consider `O=C(Nc1ncco1)c1ccc(NCC2(c3ncccc3F)CCC2)nn1` [[6-({[(3-fluoro(2-pyridyl))cyclobutyl]methyl}ami-no)pyridazin-3-yl]-N-(1,3-oxazol-2-yl)carboxamide], for which the “Mean AC1.4” value is given as “D (D=>20 uM)”.

For `COC(=O)c1cc2cc(-c3ccc(NC[C@]4(c5ncccc5F)C[C@H](F)C4)nn3)ccc2[nH]1` [methyl 5-[6-({[3-fluoro-1-(3-fluoro(2-pyridyl))cyclobutyl]methyl}ami-no)pyridazin-3-yl]indole-2-carboxylate], the “Mean AC1.4” value was “A (A=<1 uM)”.

Regarding `O=C(NCC1(O)CC1)c1cccc(-c2ccc(NC[C@]3(c4ncccc4F)C[C@H](F)C3)nn2)c1` [{3-[6-({[3-fluoro-1-(3-fluoro(2-pyridyl))cyclobutyl]methyl}ami-no)pyridazin-3-yl]phenyl}-N-[(hydroxycyclopropyl)methyl]car-boxamide], the “Mean AC1.4” value is on record as “A (A=<1 uM)”.

With `O=C(NC1CC1)c1ccc(F)c(-c2ccc(NC[C@]3(c4ncccc4F)C[C@H](F)C3)nn2)c1` [N-cyclopropyl{4-fluoro-3-[6-({[3-fluoro-1-(3-fluoro(2-pyridyl))cyclobutyl]methyl}ami-no)pyridazin-3-yl]phenyl}carboxamide], the “Mean AC1.4” value is “A (A=<1 uM)”.

As for `CC(=O)NCc1ncc(-c2ccc(NCC3(c4ncccc4F)CCC3)nn2)s1` [N-({5-[6-({[(3-fluoro-2-pyridyl)cyclobutyl]methyl}ami-no)pyridazin-3-yl]-1,3-thiazol-2-yl}methyl)acetamide], the “Mean AC1.4” value is “B (B=1-10 uM)”.

As for `NC(=O)c1cc(-c2ccc(NCC3(c4ncccc4F)CCC3)nn2)c(F)cc1O` [4-fluoro-5-[6-({[(3-fluoro(2-pyridyl))cyclobutyl]methyl}ami-no)pyridazin-3-yl]-2-hydroxybenzamide], the “Mean AC1.4” value is listed as “A (A=<1 uM)”.
